This is an account of results in patent publication US20260042762A1 (Kymera Therapeutics, Inc., priority 2018, published 2026).

For test [1], the target named is T1, MerTK (Mus musculus, UniProt Q60805).
T1 construct: endogenous in cells; host or cells: RAW264 cells
T1 sequence (Q60805 19-994): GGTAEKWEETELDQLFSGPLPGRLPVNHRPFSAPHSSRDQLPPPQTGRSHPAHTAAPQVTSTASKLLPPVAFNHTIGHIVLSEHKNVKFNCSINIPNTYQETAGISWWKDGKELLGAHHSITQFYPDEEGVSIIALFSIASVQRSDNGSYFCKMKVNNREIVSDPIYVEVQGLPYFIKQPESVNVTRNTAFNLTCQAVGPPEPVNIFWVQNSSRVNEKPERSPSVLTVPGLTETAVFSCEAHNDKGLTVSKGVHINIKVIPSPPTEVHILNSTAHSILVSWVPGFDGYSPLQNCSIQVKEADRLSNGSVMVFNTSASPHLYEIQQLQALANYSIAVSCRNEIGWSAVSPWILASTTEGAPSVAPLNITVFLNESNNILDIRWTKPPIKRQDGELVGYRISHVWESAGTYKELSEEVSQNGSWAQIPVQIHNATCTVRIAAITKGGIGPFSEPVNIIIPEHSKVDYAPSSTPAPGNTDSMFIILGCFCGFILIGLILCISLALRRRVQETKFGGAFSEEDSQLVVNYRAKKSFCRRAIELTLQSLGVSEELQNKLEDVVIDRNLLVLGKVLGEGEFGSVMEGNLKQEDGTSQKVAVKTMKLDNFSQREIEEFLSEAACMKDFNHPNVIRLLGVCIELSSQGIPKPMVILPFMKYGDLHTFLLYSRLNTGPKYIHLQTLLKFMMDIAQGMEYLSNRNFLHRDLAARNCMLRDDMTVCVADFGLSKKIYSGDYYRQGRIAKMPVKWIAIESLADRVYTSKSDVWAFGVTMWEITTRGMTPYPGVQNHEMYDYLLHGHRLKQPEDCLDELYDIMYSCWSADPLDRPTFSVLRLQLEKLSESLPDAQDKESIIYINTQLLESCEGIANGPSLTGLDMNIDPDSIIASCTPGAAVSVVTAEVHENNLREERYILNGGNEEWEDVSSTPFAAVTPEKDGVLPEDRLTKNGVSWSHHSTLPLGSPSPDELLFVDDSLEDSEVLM
The test can be described thus: MerTK degradation in RAW264 cells (Western blot). The format is cell-based. Conditions: RAW264.7, 0.001-1 μM, 4 hour-incubation at 37° C., read-out: RAW264 Max % MerTK Degradation. The procedure:
Compounds were reconstituted in DMSO to make 10 mM stock solutions. RAW264 cells were maintained in DMEM medium containing 10% FBS. Cells were seeded into 6-well plates with 2×10^6 cells per well. 2 μL of diluted compounds were added to cells to the final concentration of 0.001-1 μM. After a 4 hour-incubation at 37° C., cells were washed with DPBS (1×) once. Then RIPA lysis buffer with Halt Protease and Phosphatase Inhibitor Cocktail was added directly to the cells and cells were then incubated on ice for 10 min, then lysate was harvested into 1.5 mL Eppendorf tubes and centrifuged at 14,000 rpm for 10 min at 4° C. and the supernatants were collected for Western blots.
The protein concentration of cell lysates was quantified with Pierce™ BCA Protein Assay Kit. […] BCA working reagents were prepared by mixing BCA reagent A with reagent B in 50: 1 ratio. 200 μL of the BCA working reagents were added to 25 μL of BCA standard or cell lysates in microplate, and mixed thoroughly on a plate shaker for 30 seconds. After incubation at 37° C. for 30 min, the absorbance of samples at 562 nm were measured with EnVision Plate Reader.
Protein lysates were prepared in NuPAGE™ LDS sample buffer and NuPAGE™ sample reducing agent, and incubated at 95° C. for 5 min. […] The proteins were transferred to low fluorescence PVDF membranes using the Trans-Blot Turbo Transfer System. Membranes were then blocked in Odyssey blocking buffer at RT for 1 h followed by primary incubation at 4° C. overnight. The primary antibodies were MerTK goat polyclonal antibody and actin mouse monoclonal antibody. Membranes were washed three times with TBST (1×), and then incubated with IR Dye 800 CW Donkey anti-goat and IR Dye 700 CW Goat anti-mouse secondary antibodies in 1:10,000 dilution at RT for 1 h. The Western blot images were obtained using Odyssey Imaging System.
In general terms: A western blot detects proteins with antibodies after separation by electrophoresis.

Test [2] concerns the target T2, MerTK (Homo sapiens, UniProt Q12866).
T2 construct: endogenous in cells; host or cells: Jurkat cells
T2 sequence (Q12866 21-999): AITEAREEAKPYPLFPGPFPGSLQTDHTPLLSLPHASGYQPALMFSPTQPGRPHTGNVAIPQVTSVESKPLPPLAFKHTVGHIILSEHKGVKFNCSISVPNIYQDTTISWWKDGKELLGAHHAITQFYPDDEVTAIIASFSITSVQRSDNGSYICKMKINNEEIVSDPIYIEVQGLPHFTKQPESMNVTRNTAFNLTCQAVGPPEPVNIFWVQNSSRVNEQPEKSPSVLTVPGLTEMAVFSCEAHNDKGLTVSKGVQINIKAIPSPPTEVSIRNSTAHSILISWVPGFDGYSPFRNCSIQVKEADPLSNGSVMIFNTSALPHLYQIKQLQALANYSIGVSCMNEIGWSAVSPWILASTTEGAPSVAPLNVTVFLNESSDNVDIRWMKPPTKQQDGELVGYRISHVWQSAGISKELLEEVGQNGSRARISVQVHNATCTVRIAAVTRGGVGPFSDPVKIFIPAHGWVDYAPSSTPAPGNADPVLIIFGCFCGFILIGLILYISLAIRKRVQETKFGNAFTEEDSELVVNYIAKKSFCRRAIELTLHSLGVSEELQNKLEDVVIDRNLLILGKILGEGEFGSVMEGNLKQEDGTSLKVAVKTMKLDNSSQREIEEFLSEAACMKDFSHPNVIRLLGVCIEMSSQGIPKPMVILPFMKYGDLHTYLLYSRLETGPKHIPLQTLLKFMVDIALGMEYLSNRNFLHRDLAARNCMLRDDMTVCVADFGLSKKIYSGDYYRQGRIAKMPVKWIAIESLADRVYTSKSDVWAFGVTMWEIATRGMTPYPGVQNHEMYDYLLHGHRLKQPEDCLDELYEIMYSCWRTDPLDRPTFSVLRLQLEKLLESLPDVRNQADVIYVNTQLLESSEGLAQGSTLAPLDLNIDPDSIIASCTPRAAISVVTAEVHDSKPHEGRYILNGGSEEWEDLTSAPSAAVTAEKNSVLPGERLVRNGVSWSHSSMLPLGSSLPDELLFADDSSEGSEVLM
The test can be described thus: MerTk degradation in Jurkat cells (Western blot). The format is cell-based. The conditions noted are these: 0.001-1 μM, 4 hour-incubation at 37° C., read-out: Jurkat Max % MerTK Degradation. The essentials: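 Jurkat cells treated 4 h at 37 °C with compound at 0.001-1 μM final. RIPA lysates quantified by BCA, then MerTK probed by Western blot against actin loading control with IR-dye secondaries and Odyssey imaging.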

Structures can show the parent of a compound that is named as a salt. Where two headings read alike, the source gives them in different places.

With `CCCCNc1ncc(-c2ccc(CN3CCN(CCOCCOCCOCCOCCNc4cccc5c4C(=O)N(C4CCC(=O)NC4=O)C5=O)CC3)cn2)c(N[C@H]2CC[C@H](O)CC2)n1` (stereo partly drawn) [I-25, 4-[15-[4-([6-[2-(Butylamino)-4-[[trans-4-hydroxycyclohexyl]amino]pyrimidin-5-yl]pyridin-3-yl]methyl)piperazin-1-yl]-4,7,10,13-tetraoxa-1-azapentadecan-1-yl]-2-(2,6-dioxopiperidin-3-yl)-2,3-dihydro-1H-isoindole-1,3-dione], the Dmax in test [1] was greater than 50%; in test [2] (Jurkat, 4 h), greater than 50%. In the case of `O=C1CCC(N2C(=O)c3cccc(NCCOCCOCCOCCOCCN4CCN(Cc5ccc(-c6cn([C@H]7CC[C@H](O)CC7)c7nc(NCCC8CC8)ncc67)cc5)CC4)c3C2=O)C(=O)N1` (stereo partly drawn) [I-14, 4-(15-[4-[(4-[2-[(2-Cyclopropylethyl)amino]-7-[trans-4-hydroxycyclohexyl]-7H-pyrrolo[2,3-d]pyrimidin-5-yl]phenyl)methyl]piperazin-1-yl]-4,7,10,13-tetraoxa-1-azapentadecan-1-yl)-2-(2,6-dioxopiperidin-3-yl)-2,3-dihydro-1H-isoindole-1,3-dione formate], the Dmax in test [1] is greater than 50%; in test [2] (Jurkat, 4 h), greater than 50%. In the case of `CCCCNc1ncc2c(-c3ccc(S(=O)(=O)N4CCN(C(=O)NCCOCCCOCCNc5cccc6c5C(=O)N(C5CCC(=O)NC5=O)C6=O)CC4)cc3)nn([C@H]3CC[C@H](O)CC3)c2n1` (stereo partly drawn) [I-23, 4-((4-(6-(Butylamino)-1-(trans-4-hydroxycyclohexyl)-1H-pyrazolo[3,4-d]pyrimidin-3-yl)phenyl)sulfonyl)-N-(2-(3-(2-((2-(2,6-dioxopiperidin-3-yl)-1,3-dioxoisoindolin-4-yl)amino)ethoxy)propoxy)ethyl)piperazine-1-carboxamide], the Dmax was 20 to 50% in test [1] and greater than 50% in test [2] (Jurkat, 4 h).

For the compound `CCCCNc1ncc2c(-c3ccc(CN4CCN(CCOCCOCCOCCOCCCc5ccc6c(c5)n(C)c(=O)n6C5CCC(=O)NC5=O)CC4)cc3)nn([C@H]3CC[C@H](O)CC3)c2n1` (stereo partly drawn) [I-38, trans-3-(5-[1-[4-([4-[6-(butylamino)-1-[4-hydroxycyclohexyl]-1H-pyrazolo[3,4-d]pyrimidin-3-yl]phenyl]methyl)piperazin-1-yl]-3,6,9,12-tetraoxapentadecan-15-yl]-3-methyl-2-oxo-2,3-dihydro-1H-1,3-benzodiazol-1-yl)piperidine-2,6-dione], the Dmax in test [1] was greater than 50%; in test [2] (Jurkat, 4 h), greater than 50%. `CCCCNc1ncc2c(-c3ccc(CNCCCOCCCOCCCc4cccc5c4n(C)c(=O)n5C4CCC(=O)NC4=O)cc3)cn([C@H]3CC[C@H](O)CC3)c2n1` (stereo partly drawn) [I-6, Trans-3-[4-[3-(3-[3-[([4-[2-(butylamino)-7-[4-hydroxycyclohexyl]-7H-pyrrolo[2,3-d]pyrimidin-5-yl]phenyl]methyl)amino]propoxy]propoxy)propyl]-3-methyl-2-oxo-2,3-dihydro-1H-1,3-benzodiazol-1-yl]piperidine-2,6-dione]: the Dmax in test [1] and in test [2] was greater than 50% in each case. As for `CCCCNc1ncc2c(-c3ccc(CN4CCN(CCOCCOCCOCCCc5ccc6c(c5)n(C)c(=O)n6C5CCC(=O)NC5=O)CC4)cc3)cn([C@H]3CC[C@H](O)CC3)c2n1` (stereo partly drawn) [I-40, 3-(5-[3-[2-(2-[2-[4-([4-[2-(Butylamino)-7-[trans-4-hydroxycyclohexyl]-7H-pyrrolo[2,3-d]pyrimidin-5-yl]phenyl]methyl)piperazin-1-yl]ethoxy]ethoxy)ethoxy]propyl]-3-methyl-2-oxo-2,3-dihydro-1H-1,3-benzodiazol-1-yl)piperidine-2,6-dione formic acid], the Dmax is greater than 50% in test [1] and greater than 50% in test [2] (Jurkat, 4 h). Regarding `CCCCNc1ncc2c(-c3ccc(S(=O)(=O)N4CCN(CCOCCOCCOCCOCCCc5cccc6c5n(C)c(=O)n6C5CCC(=O)NC5=O)CC4)cc3)cn([C@H]3CC[C@H](O)CC3)c2n1` (stereo partly drawn) [I-13, 3-[4-[1-(4-[4-[2-(Butylamino)-7-[trans-4-hydroxycyclohexyl]-7H-pyrrolo [2,3-d]pyrimidin-5-yl]benzenesulfonyl]piperazin-1-yl)-3,6,9,12-tetraoxapentadecan-15-yl]-3-methyl-2-oxo-2,3-dihydro-1H-1,3-benzodiazol-1-yl]piperidine-2,6-dione formate], the Dmax in test [1] is greater than 50%; in test [2] (Jurkat, 4 h), greater than 50%. `COc1ccc(Nc2nc(Nc3cc(OCCOCCOCCOCCOCCNc4cccc5c4C(=O)N(C4CCC(=O)NC4=O)C5=O)c(OC)cc3C)ncc2Cl)c(NS(C)(=O)=O)c1` (stereo not shown) [I-231]: in test [2] (Jurkat, 4 h), the Dmax is less than 20%. Take `CCC[C@H](C)Nc1ncc2c(-c3ccc(CN4CCN(CCCO[C@H]5CCN(Cc6ccc7c(c6)n(C)c(=O)n7C6CCC(=O)NC6=O)C5)CC4)cc3)cn([C@H]3CC[C@H](O)CC3)c2n1` (stereo partly drawn) [I-177, 3-(3-methyl-2-oxo-5-[[(3S)-3-(3-[4-[(4-[2-[(2S)-pentan-2-ylamino]-7-[trans-4-hydroxycyclohexyl]pyrrolo[2,3-d]pyrimidin-5-yl]phenyl)methyl]piperazin-1-yl]propoxy)pyrrolidin-1-yl]methyl]-1,3-benzodiazol-1-yl)piperidine-2,6-dione]: in test [2] (Jurkat, 4 h), the Dmax is greater than 50%.
